Experimental data from the supplement of paper PMC10307832.

Columns and labels:
Test in all cases: relative viability (nuclei count vs DMSO), 5 days (fraction); higher = more cells survive
NCI-H1993 = test system: NCI-H1993
Summary of the method: (§1)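 A single step with final 0.05% Triton X-100, 1% formaldehyde and 1 ug/ml Hoechst fixed the cells and stained nuclei 5 days after treatment. Lung cancer cell lines in 1536-well plates had been treated by pin tool the day after seeding with one drug alone or a fixed anchor-drug dose plus five library-drug doses (not always all listed) in √10 steps, and nuclei were counted on 4× images. Relative viability is the ratio of nuclei in treated wells to nuclei in vehicle wells, taken as the median of duplicate plates.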

IA-LM = test system: IA-LM
Summary of the method: as §1

NCI-H1648 = test system: NCI-H1648
Summary of the method: as §1

ABC-1 = test system: ABC-1
Summary of the method: as §1

RERF-LC-KJ = test system: RERF-LC-KJ
Summary of the method: as §1

EKVX = test system: EKVX
Summary of the method: as §1

NCI-H2085 = test system: NCI-H2085
Summary of the method: as §1

HCC-44 = test system: HCC-44
Summary of the method: as §1

NCI-H2126 = test system: NCI-H2126
Summary of the method: as §1

A549 = test system: A549
Summary of the method: as §1

**Q.** Which relative viability (NCI-H1993; first compound 0.0002 µM) does the source give for `CC(=O)O[C@@]12CO[C@@H]1C[C@H](O)[C@@]1(C)C(=O)[C@H](O)C3=C(C)[C@@H](OC(=O)[C@H](O)[C@@H](NC(=O)OC(C)(C)C)c4ccccc4)C[C@@](O)([C@@H](OC(=O)c4ccccc4)[C@H]21)C3(C)C` [Docetaxel] + O=C(CCCCCCC(=O)Nc1ccccc1)NO [Vorinostat] (partner 1 µM) here?
**A.** 0.594

**Q.** And the relative viability (NCI-H1993; first compound 0.000632 µM)?
**A.** 0.499

**Q.** What about the relative viability (NCI-H1993; first compound 0.002 µM) of the same compound?
**A.** 0.376

**Q.** What about the relative viability (NCI-H1993; first compound 0.006325 µM) of the same compound?
**A.** 0.392

**Q.** What about the relative viability (NCI-H1993; first compound 0.02 µM) of the same compound?
**A.** 0.246

**Q.** And the relative viability (IA-LM; first compound 0.0002 µM)?
**A.** 0.723

**Q.** What about the relative viability (IA-LM; first compound 0.000632 µM) of the same compound?
**A.** 0.328

**Q.** And the relative viability (IA-LM; first compound 0.002 µM)?
**A.** 0.145

**Q.** And the relative viability (IA-LM; first compound 0.006325 µM)?
**A.** 0.0958

**Q.** And the relative viability (IA-LM; first compound 0.02 µM)?
**A.** 0.0566

**Q.** What about the relative viability (NCI-H1648; first compound 0.0002 µM) of the same compound?
**A.** 0.487

**Q.** And the relative viability (NCI-H1648; first compound 0.000632 µM)?
**A.** 0.378

**Q.** And the relative viability (NCI-H1648; first compound 0.002 µM)?
**A.** 0.255

**Q.** And the relative viability (NCI-H1648; first compound 0.006325 µM)?
**A.** 0.301

**Q.** And the relative viability (NCI-H1648; first compound 0.02 µM)?
**A.** 0.155

**Q.** What about the relative viability (ABC-1; first compound 0.0002 µM) of the same compound?
**A.** 1.13

**Q.** And the relative viability (ABC-1; first compound 0.000632 µM)?
**A.** 0.884

**Q.** And the relative viability (ABC-1; first compound 0.002 µM)?
**A.** 0.44

**Q.** And the relative viability (ABC-1; first compound 0.006325 µM)?
**A.** 0.435

**Q.** And the relative viability (ABC-1; first compound 0.02 µM)?
**A.** 0.338

**Q.** And the relative viability (RERF-LC-KJ; first compound 0.0002 µM)?
**A.** 0.591

**Q.** And the relative viability (RERF-LC-KJ; first compound 0.000632 µM)?
**A.** 0.628

**Q.** What about the relative viability (RERF-LC-KJ; first compound 0.002 µM) of the same compound?
**A.** 0.368

**Q.** And the relative viability (RERF-LC-KJ; first compound 0.006325 µM)?
**A.** 0.189

**Q.** What about the relative viability (RERF-LC-KJ; first compound 0.02 µM) of the same compound?
**A.** 0.151

**Q.** What about the relative viability (EKVX; first compound 0.0002 µM) of the same compound?
**A.** 0.638

**Q.** What about the relative viability (EKVX; first compound 0.000632 µM) of the same compound?
**A.** 0.6

**Q.** And the relative viability (EKVX; first compound 0.002 µM)?
**A.** 0.428

**Q.** What about the relative viability (EKVX; first compound 0.006325 µM) of the same compound?
**A.** 0.29

**Q.** What about the relative viability (EKVX; first compound 0.02 µM) of the same compound?
**A.** 0.229

**Q.** What about the relative viability (NCI-H2085; first compound 0.0002 µM) of the same compound?
**A.** 0.82

**Q.** And the relative viability (NCI-H2085; first compound 0.000632 µM)?
**A.** 0.734

**Q.** What about the relative viability (NCI-H2085; first compound 0.002 µM) of the same compound?
**A.** 0.736

**Q.** And the relative viability (NCI-H2085; first compound 0.006325 µM)?
**A.** 0.355

**Q.** And the relative viability (NCI-H2085; first compound 0.02 µM)?
**A.** 0.488

**Q.** What about the relative viability (HCC-44; first compound 0.0002 µM) of the same compound?
**A.** 0.994

**Q.** And the relative viability (HCC-44; first compound 0.000632 µM)?
**A.** 1.14

**Q.** What about the relative viability (HCC-44; first compound 0.002 µM) of the same compound?
**A.** 0.861

**Q.** What about the relative viability (HCC-44; first compound 0.006325 µM) of the same compound?
**A.** 0.515

**Q.** And the relative viability (HCC-44; first compound 0.02 µM)?
**A.** 0.493

**Q.** What about the relative viability (NCI-H2126; first compound 0.0002 µM) of the same compound?
**A.** 0.783

**Q.** And the relative viability (NCI-H2126; first compound 0.000632 µM)?
**A.** 0.577

**Q.** And the relative viability (NCI-H2126; first compound 0.002 µM)?
**A.** 0.312

**Q.** And the relative viability (NCI-H2126; first compound 0.006325 µM)?
**A.** 0.337

**Q.** `Cc1sc2c(c1C)C(c1ccc(Cl)cc1)=N[C@@H](CC(=O)OC(C)(C)C)c1nnc(C)n1-2` [JQ1] + Nc1ncn([C@H]2C[C@H](O)[C@@H](CO)O2)c(=O)n1 [Decitabine] (partner 2 µM) was tested. Which relative viability (NCI-H1993; first compound 0.04 µM) did it give?
**A.** 0.586

**Q.** What about the relative viability (NCI-H1993; first compound 0.1265 µM) of the same compound?
**A.** 0.636

**Q.** And the relative viability (NCI-H1993; first compound 0.4 µM)?
**A.** 0.553

**Q.** And the relative viability (NCI-H1993; first compound 1.265 µM)?
**A.** 0.538

**Q.** And the relative viability (NCI-H1993; first compound 4 µM)?
**A.** 0.475

**Q.** What about the relative viability (A549; first compound 0.04 µM) of the same compound?
**A.** 0.275

**Q.** And the relative viability (A549; first compound 0.1265 µM)?
**A.** 0.267

**Q.** What about the relative viability (A549; first compound 0.4 µM) of the same compound?
**A.** 0.378

**Q.** And the relative viability (A549; first compound 1.265 µM)?
**A.** 0.405

**Q.** What about the relative viability (A549; first compound 4 µM) of the same compound?
**A.** 0.252

**Q.** What about the relative viability (NCI-H1648; first compound 0.04 µM) of the same compound?
**A.** 0.497

**Q.** What about the relative viability (NCI-H1648; first compound 0.1265 µM) of the same compound?
**A.** 0.652

**Q.** And the relative viability (NCI-H1648; first compound 0.4 µM)?
**A.** 0.409

**Q.** What about the relative viability (NCI-H1648; first compound 1.265 µM) of the same compound?
**A.** 0.398

**Q.** What about the relative viability (NCI-H1648; first compound 4 µM) of the same compound?
**A.** 0.286

**Q.** And the relative viability (ABC-1; first compound 0.04 µM)?
**A.** 1.19

**Q.** And the relative viability (ABC-1; first compound 0.1265 µM)?
**A.** 0.889

**Q.** And the relative viability (ABC-1; first compound 0.4 µM)?
**A.** 0.691

**Q.** What about the relative viability (ABC-1; first compound 1.265 µM) of the same compound?
**A.** 0.837

**Q.** What about the relative viability (ABC-1; first compound 4 µM) of the same compound?
**A.** 0.582

**Q.** And the relative viability (RERF-LC-KJ; first compound 0.04 µM)?
**A.** 0.648

**Q.** What about the relative viability (RERF-LC-KJ; first compound 0.1265 µM) of the same compound?
**A.** 0.532

**Q.** And the relative viability (RERF-LC-KJ; first compound 0.4 µM)?
**A.** 0.56

**Q.** What about the relative viability (RERF-LC-KJ; first compound 1.265 µM) of the same compound?
**A.** 0.333

**Q.** What about the relative viability (RERF-LC-KJ; first compound 4 µM) of the same compound?
**A.** 0.235

**Q.** What about the relative viability (EKVX; first compound 0.04 µM) of the same compound?
**A.** 0.338

**Q.** What about the relative viability (EKVX; first compound 0.1265 µM) of the same compound?
**A.** 0.36

**Q.** And the relative viability (EKVX; first compound 0.4 µM)?
**A.** 0.359

**Q.** What about the relative viability (EKVX; first compound 1.265 µM) of the same compound?
**A.** 0.35

**Q.** And the relative viability (EKVX; first compound 4 µM)?
**A.** 0.336

**Q.** And the relative viability (NCI-H2085; first compound 0.04 µM)?
**A.** 0.538

**Q.** And the relative viability (NCI-H2085; first compound 0.1265 µM)?
**A.** 0.595

**Q.** And the relative viability (NCI-H2085; first compound 0.4 µM)?
**A.** 0.509

**Q.** And the relative viability (NCI-H2085; first compound 1.265 µM)?
**A.** 0.454

**Q.** And the relative viability (NCI-H2085; first compound 4 µM)?
**A.** 0.473

**Q.** What about the relative viability (HCC-44; first compound 0.04 µM) of the same compound?
**A.** 0.955

**Q.** What about the relative viability (HCC-44; first compound 0.1265 µM) of the same compound?
**A.** 0.63

**Q.** And the relative viability (HCC-44; first compound 0.4 µM)?
**A.** 0.834

**Q.** And the relative viability (HCC-44; first compound 1.265 µM)?
**A.** 0.903

**Q.** And the relative viability (HCC-44; first compound 4 µM)?
**A.** 0.516

**Q.** And the relative viability (NCI-H2126; first compound 0.04 µM)?
**A.** 0.591

**Q.** What about the relative viability (NCI-H2126; first compound 0.1265 µM) of the same compound?
**A.** 0.584

**Q.** And the relative viability (NCI-H2126; first compound 0.4 µM)?
**A.** 0.561

**Q.** What about the relative viability (NCI-H2126; first compound 1.265 µM) of the same compound?
**A.** 0.411

**Q.** What about the relative viability (NCI-H2126; first compound 4 µM) of the same compound?
**A.** 0.428
